One series deals with VZV. Kind of series: In vitro antiviral screening, CPE inhibition in HFF cells. Type of series: cell-based, varicella zoster virus. The conditions noted are these: VZV, CPE Inhibition.
The next series relates to EBV. Kind of series: In vitro antiviral screening, VCA Elisa. Type of series: cell-based, epstein-barr virus. Conditions: for EC50: EBV, VCA Elisa.
In series [1] the test system is rabbit corneal cell line (SIRC). The conditions noted are these: SIRC cells.
For series [2] the following is noted: for first order hydrolytic rate constant k: 37° C.
The subject of another series is HCMV. Kind of series: In vitro antiviral screening, CPE inhibition in HFF cells. Type of series: cell-based, human cytomegalovirus. The conditions noted are these: for EC50: HCMV, CPE Inhibition.
Series [3] deals with oligopeptide transporter on the rabbit cornea.
A further series concerns HSV-2. Put plainly: In vitro antiviral screening, CPE inhibition in HFF cells. Type of series: cell-based, herpes simplex virus 2. Conditions: for EC50: HSV-2, CPE Inhibition.
The next series deals with Caco-2 cell suspension. Conditions: Caco-2, pH 7.4.
The next series has as its system HSV-1. Kind of series: In vitro antiviral screening, CPE inhibition in HFF cells. Type of series: cell-based, herpes simplex virus 1.
Setting [4] is: pH 1.2, * = no measurable degradation during 7 day experiment.
Setting [5] is: pH 2.6, * = no measurable degradation during 7 day experiment.

Experimental findings from patent US20090149482A1, “STEREOCHEMICALLY DEFINED DIPEPTIDE ESTERS OF ANTIVIRAL AGENTS FOR ENHANCED OCULAR TREATMENT” (priority 2001, published 2009) are described below.

SMILES strings stand for the structures. Read-outs that look alike come from different tables or passages of the source.

Regarding `CC(C)[C@H](N)C(=O)OCCOCn1cnc2c(=O)[nH]c(N)nc21` [Val-ACV, L-Valine-acyclovir], the EC50 is less than 0.08 µM with VZV (Human alphaherpesvirus 3, HFF); 0.55 µM with EBV (human gammaherpesvirus 4); 30.8 µM with HCMV (Human betaherpesvirus 5, HFF); 7.77 µM in the series with HSV-2 (Human alphaherpesvirus 2, HFF); 9.1 µM in the series on HSV-1 (Human alphaherpesvirus 1, HFF, read-out: EC50 (concentration required to inhibit viral cytopathogenicity by 50%), HSV-1, CPE Inhibition); 9.1 µM with HSV-1 (Human alphaherpesvirus 1, HFF, HSV-1, running text, read-out: EC50 against HSV-1). The “SI (Selectivity Index) = CC50/EC50” value is on record as “SI > 250” in the series on EBV, “SI > 9” with HCMV and “SI > 35.7” in the series on HSV-2. The “% viable cells” value in series [1] (5 mM) amounted to 89.3±5.1%. In addition, the “hydrolytic rate constant k” value is, setting by setting: (Aqueous Humor) 21.8 (±1.2) k × 10^3 min^−1 mg^−1 protein; (Cornea homogenate) 8.1 (±1.2) k × 10^3 min^−1 mg^−1 protein; (Iris-Ciliary Body homogenate) 283.1 (±19.7) k × 10^3 min^−1 mg^−1 protein; (Lens homogenate) 10.1 (±0.3) k × 10^3 min^−1 mg^−1 protein; (Vitreous Humor) 7.1 (±0.9) k × 10^3 min^−1 mg^−1 protein. For the same compound, the “first order hydrolytic rate constant k” value in [2] (setting [4]) is given as 1.22 k × 10^3 min^−1; in series [2] (setting [5]) it was 0.41 k × 10^3 min^−1; in series [2] (pH 4.2, * = no measurable degradation during 7 day experiment), 0.008 k × 10^3 min^−1; in [2] (pH 5.6, * = no measurable degradation during 7 day experiment), 0.16 k × 10^3 min^−1; in series [2] (pH 7.4) it was 0.67 k × 10^3 min^−1; in series [2] (pH 9.0), 1.63 k × 10^3 min^−1. Also, the “Papp (% Control) of [3H] Val-ACV” value in [3] is 20.1 (±6.7) % Control. In addition, in the series on Caco-2 cell suspension (human), the “10^2 × kobs” value turned out to be 0.56 ± 0.038 min^−1mg^−1 protein.
As for `CC(C)C(N)C(=O)NC(C(=O)OCCOCn1cnc2c(=O)[nH]c(N)nc21)C(C)C` (stereo not drawn) [Val-Val-ACV, Val-Valacyclovir], the EC50 with VZV was 0.09 µM; with EBV it was 93.1 µM; with HCMV, greater than 186 µM; in the series on HSV-2 it was 22.7 µM; with HSV-1 (read-out: EC50 against HSV-1) it was 6.14 µM. The percent survival in [1] (0.25 mM) is 86.3%; in series [1] (0.5 mM), 85.8%; in [1] (1 mM) it was 87.0%; in series [1] (2 mM), 87.0%; in series [1] (5 mM) it was 99.3%; in series [1] (10 mM), 54.03%. Also, the “% viable cells” value in [1] (5 mM) turned out to be 90.1±4.6%. Also, the t1/2 (rabbit, tissue homogenate) came out at 84 min and the t1/2 in the series with Caco-2 cell suspension (human) came out at 33.2 ± 6.9 min. For the same compound, the “first order hydrolytic rate constant k” value was determined as 0.0062 k × 10^3 min^−1 in [2] (setting [4]), 0.0051 k × 10^3 min^−1 in series [2] (setting [5]), 0.107 k × 10^3 min^−1 in [2] (pH 7.4) and 0.24 k × 10^3 min^−1 in series [2] (pH 9.0). Also, in series [2] (pH 5.6, concluded from rate constants), the “stability as an ophthalmic solution” value is listed as “stable for two years”. Also, the “Papp (% Control) of [3H] Val-ACV” value in series [3] was 18.6 (±8.9) % Control. For the same compound, the “10^2 × kobs” value in the series on Caco-2 cell suspension turned out to be 2.14 ± 0.44 min^−1mg^−1 protein.
